These results are taken from ChEMBL document CHEMBL1135077, “Human glucagon receptor antagonists based on alkylidene hydrazides” (Bioorg Med Chem Lett, 2002).

Bounds are passed on as bounds.

Sequence of Glucagon receptor (Homo sapiens, UniProt P47871) (P47871 whole entry): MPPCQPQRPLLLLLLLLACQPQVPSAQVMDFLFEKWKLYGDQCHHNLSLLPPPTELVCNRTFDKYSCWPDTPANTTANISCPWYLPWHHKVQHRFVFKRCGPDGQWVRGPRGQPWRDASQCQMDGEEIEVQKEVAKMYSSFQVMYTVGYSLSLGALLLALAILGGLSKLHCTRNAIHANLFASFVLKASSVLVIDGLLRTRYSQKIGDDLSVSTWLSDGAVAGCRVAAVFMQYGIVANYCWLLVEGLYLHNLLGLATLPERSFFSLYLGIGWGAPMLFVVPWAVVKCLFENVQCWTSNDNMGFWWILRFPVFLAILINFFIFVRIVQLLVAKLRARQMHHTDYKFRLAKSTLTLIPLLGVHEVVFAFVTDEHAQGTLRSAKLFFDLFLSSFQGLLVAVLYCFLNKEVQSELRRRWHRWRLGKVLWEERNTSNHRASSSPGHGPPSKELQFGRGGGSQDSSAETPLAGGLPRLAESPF
Sequence of Glucagon receptor (Rattus norvegicus, UniProt P30082) (P30082 whole entry): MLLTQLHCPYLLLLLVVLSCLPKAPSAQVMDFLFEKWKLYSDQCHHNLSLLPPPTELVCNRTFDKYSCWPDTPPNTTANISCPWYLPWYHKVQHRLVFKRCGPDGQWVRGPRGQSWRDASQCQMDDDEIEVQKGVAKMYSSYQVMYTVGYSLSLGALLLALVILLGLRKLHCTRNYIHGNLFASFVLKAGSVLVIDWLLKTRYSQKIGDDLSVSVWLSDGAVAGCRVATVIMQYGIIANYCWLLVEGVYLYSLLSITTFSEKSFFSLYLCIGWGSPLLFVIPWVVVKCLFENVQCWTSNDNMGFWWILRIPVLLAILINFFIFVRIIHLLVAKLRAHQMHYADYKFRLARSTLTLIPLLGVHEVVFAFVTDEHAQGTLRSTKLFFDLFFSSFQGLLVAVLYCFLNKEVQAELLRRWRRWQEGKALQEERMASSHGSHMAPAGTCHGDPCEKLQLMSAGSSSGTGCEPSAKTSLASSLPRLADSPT

The first series addresses Glucagon receptor (Rattus norvegicus, UniProt P30082). As to the kind of experiment: In vitro inhibitory activity against rat glucagon receptor using […]-labeled glucagon.
`COc1cc(/C=N/NC(=O)c2ccc(O)c(C#N)c2)cc(OC)c1OCc1ccc(C(C)C)cc1` displayed an IC50 of 1 nM.

Test system in another series: not listed separately
Briefly: Half life period in vivo. In kind it is ADME, organism-based.
The molecule `COc1cc(/C=N/NC(=O)c2ccc(O)c(C#N)c2)cc(OC)c1OCc1ccc(C(C)C)cc1` came in with a half-life of 60 min.

As for `COc1cc(/C=N/NC(=O)c2ccc(O)c(Cl)c2)cc(OC)c1OCc1ccc(C(C)C)cc1`, the half-life was 18 min.

The next series addresses Glucagon receptor (Homo sapiens, UniProt P47871). As to the kind of experiment: In vitro inhibitory activity against human glucagon receptor using […]-labeled glucagon.
For the molecule `COc1cc(/C=N/NC(=O)c2ccc(O)c(C#N)c2)cc(OC)c1OCc1ccc(C(C)C)cc1`, the IC50 turned out to be 20 nM.

`CC(C)c1ccc(Cn2ccc3c(/C=N/NC(=O)c4ccc(O)c(Cl)c4)cccc32)cc1` came in with an IC50 of 84 nM.

Molecule `CCN(CC)C(=O)COc1ccc(/C=N/NC(=O)c2ccc(O)c(Cl)c2)c2ccccc12` registered an IC50 of 130 nM.

For the molecule `COc1ccc(/C=N/NC(=O)c2ccc(O)c(Cl)c2)c2ccccc12`, half-maximal inhibition (IC50) required 870 nM.

Consider `COc1cc(/C=N/NC(=O)c2ccc(O)c([N+](=O)[O-])c2)cc(OC)c1OCc1ccc(C(C)C)cc1`, for which the IC50 stood at 50 nM.

`COc1cc(/C=N/NC(=O)c2ccc(O)c(O)c2)cc(OC)c1OCc1ccc(C(C)C)cc1` displayed an IC50 of 2700 nM.

`COc1cc(/C=N/NC(=O)c2ccc(O)c(Cl)c2Cl)cc(OC)c1OCc1ccc(C(C)C)cc1` displayed an IC50 of 31 nM.

Molecule `COc1cc(/C=N/NS(=O)(=O)c2ccc(O)c(Cl)c2)cc(OC)c1OCc1ccc(C(C)C)cc1` showed a half-maximal inhibitory concentration (IC50) of 78300 nM.

Regarding `COc1cc(/C=N/NC(=O)c2ccc(O)c(F)c2)cc(OC)c1OCc1ccc(C(C)C)cc1`, the half-maximal inhibitory concentration (IC50) was 110 nM.

Consider `COc1cc(/C=N/NC(=O)c2ccc(O)c(Cl)c2)cc(OC)c1OCc1ccc(OC(F)(F)F)cc1`, for which the midpoint of inhibition, the IC50, lay at 180 nM. Compared with the last molecule, the IC50 is about 1.6-fold higher.

Turning to `COc1cc(CCNC(=N)c2ccc(O)c(Cl)c2)cc(OC)c1OCc1ccc(C(C)C)cc1`, the IC50 was 5200 nM.

`COc1cc(/C=N/NC(=O)c2ccc(O)c(Cl)c2)ccc1OCc1ccc(C(C)C)cc1` came in with an IC50 of 1300 nM.

Consider `COc1cc(/C=N/NC(=O)c2ccc(O)c(N)c2)cc(OC)c1OCc1ccc(C(C)C)cc1`, for which half-maximal inhibition (IC50) required 940 nM.

Molecule `NC(=O)COc1ccc(/C=N/NC(=O)c2ccc(O)c(Cl)c2)c2ccccc12` returned an IC50 of 1200 nM.

`COc1cc(/C(C)=N/NC(=O)c2ccc(O)c(Cl)c2)cc(OC)c1OCc1ccc(C(C)C)cc1` had an IC50 greater than 100000 nM.

Take `CC(C)c1ccc(COc2ccc(/C=N/NC(=O)c3ccc(O)c(Cl)c3)cc2)cc1`: the IC50 came to 1500 nM. This counts as single-digit micromolar.

`Cc1cc(/C=N/NC(=O)c2ccc(O)c(Cl)c2)cc(C)c1OCc1ccc(C(C)C)cc1` registered a half-inhibitory concentration (IC50) of 330 nM.

Turning to `COC(=O)C(Oc1c(OC)cc(/C=N/NC(=O)c2ccc(O)c(Cl)c2)cc1OC)c1ccccc1` (configuration not stated), the IC50 came out at 690 nM.

For `COc1cc(/C=N/NC(=O)c2ccc(O)c(Cl)c2)cc(OC)c1OCc1ccc(F)c(F)c1`, inhibition was half-maximal at 150 nM (IC50).

Consider `COc1cc(/C=N/NC(=O)c2ccc(O)c(F)c2F)cc(OC)c1OCc1ccc(C(C)C)cc1`, for which the IC50 was determined as 48 nM.

`COc1cc(CCNC(=O)c2ccc(O)c(Cl)c2)cc(OC)c1OCc1ccc(C(C)C)cc1` yielded an IC50 of 1900 nM.

In turn, `CC(C)(C)c1nc(COc2ccc(/C=N/NC(=O)c3ccc(O)c(Cl)c3)c3ccccc23)no1` had an IC50 of 160 nM.

In turn, `COc1cc(CNNC(=O)c2ccc(O)c(Cl)c2)cc(OC)c1OCc1ccc(C(C)C)cc1` registered an IC50 of 880 nM. Compared with the last molecule, the IC50 is about 5.5-fold higher.

`O=C(N/N=C/c1ccc(OCc2ccc(OC(F)(F)F)cc2)c2ccccc12)c1ccc(O)c(Cl)c1` displayed an IC50 of 58 nM.

For `COc1cc(/C=N/NC(=O)c2ccc(O)c(Cl)c2)cc(C(=O)O)c1OCc1ccc(C(C)C)cc1`, half-maximal inhibition (IC50) was put at 30000 nM. Against the preceding molecule, the IC50 is about 520-fold higher.

Turning to `CC(C)c1ccc(COc2ccc(/C=N/NC(=O)c3ccc(O)c(Cl)c3)c3ccccc23)cc1`, the IC50 is 53 nM.

`COc1cc(/C=N/NC(=O)c2ccc(O)c(Cl)c2)cc(OC)c1OCc1ccc(C(C)C)cc1` came in with a 50% inhibitory concentration (IC50) of 23 nM.

The molecule `COc1cc(/C=C/C(=O)Nc2ccc(O)c(Cl)c2)cc(OC)c1OCc1ccc(C(C)C)cc1` displayed an IC50 of 6400 nM.

Consider `O=C(N/N=C/c1ccc(OCC2CCCCO2)c2ccccc12)c1ccc(O)c(Cl)c1` (configuration not stated), for which the midpoint of inhibition, the IC50, lay at 140 nM. Compared with the last molecule, the IC50 is about 46-fold lower.

`CC(C)c1ccc(Cn2cc(/C=N/NC(=O)c3ccc(O)c(Cl)c3)c3ccccc32)cc1` came in with a 50% inhibitory concentration (IC50) of 390 nM.

For the molecule `Cc1c(/C=N/NC(=O)c2ccc(O)c(Cl)c2)ccc(OCc2ccc(C(C)C)cc2)c1C`, the midpoint of inhibition, the IC50, lay at 740 nM.

Regarding `COc1cc(/C=N/NC(=O)c2ccc(O)cc2)cc(OC)c1OCc1ccc(C(C)C)cc1`, the IC50 is 690 nM.

Another series is filed under the species Rattus norvegicus. As to the kind of experiment: In vitro metabolism in rat liver microsomes was evaluated to determine diminishing of glucuronidation rate. In kind it is ADME. In general terms: Liver microsomes are a subcellular fraction often used to study metabolism.
Regarding `COc1cc(/C=N/NC(=O)c2ccc(O)c(C#N)c2)cc(OC)c1OCc1ccc(C(C)C)cc1`, the Rate is on record as 27 pM min-1 (mg of protein)-1.

Turning to `COc1cc(/C=N/NC(=O)c2ccc(O)c(Cl)c2)cc(OC)c1OCc1ccc(C(C)C)cc1`, the Rate is 169 pM min-1 (mg of protein)-1.

The IC50 is the concentration that inhibits the measured activity by half. The low end stands for higher potency, the high end for lower potency. Usually half-life stands for the time in which the quantity being followed falls by half. A higher half-life goes with slow loss.
